The numbers were not newly measured in paper PMC4394704, “Structures and functions of insect arylalkylamine N-acetyltransferase (iaaNAT); a key enzyme for physiological and behavioral switch in arthropods” (Frontiers in Physiology, 2015), which cites them from elsewhere.

Where two headings read alike, the source gives them in different places.

The test system of data set [1] is T1, bNAT (basic aaNAT, NATb).
T1 construct: native, purified from midgut; 28 kDa by SDS-PAGE; pH optimum 9-10
As to the kind of experiment: N-acetyltransferase activity of purified fraction. It is filed as biochemical, Periplaneta americana. To be noted: co-substrate acetyl CoA; pH not given. From the text: N-acetyltransferase activity of purified fraction on bNAT (basic aaNAT, NATb)

The subject of data set [2] is T2, aNAT (acidic aaNAT, NATa).
T2 construct: native, purified from testicular accessory gland; 28 kDa by SDS-PAGE; pH optimum 5-6
Kind of data set: N-acetyltransferase activity of purified fraction. It is filed as biochemical, Periplaneta americana. To be noted: co-substrate acetyl CoA; pH not given. The text has this: N-acetyltransferase activity of purified fraction on aNAT (acidic aaNAT, NATa)

The target of data set [3] is T3, apaaNAT (aaNAT from A. pernyi) (Antheraea pernyi, UniProt A2SZ52).
T3 construct: cDNA expressed in Sf9 cells by baculovirus
T3 sequence (A2SZ52 1-261): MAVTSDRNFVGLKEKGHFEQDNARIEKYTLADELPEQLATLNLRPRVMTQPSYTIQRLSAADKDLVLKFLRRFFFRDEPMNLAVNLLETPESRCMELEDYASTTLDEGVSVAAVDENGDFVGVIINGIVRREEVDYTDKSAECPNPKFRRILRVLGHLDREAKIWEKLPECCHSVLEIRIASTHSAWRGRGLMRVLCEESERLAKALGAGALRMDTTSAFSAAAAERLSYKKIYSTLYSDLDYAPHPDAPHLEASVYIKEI
As to the kind of experiment: N-acetyltransferase activity assay, recombinant enzyme. It is filed as biochemical. To be noted: optimal pH 8.0 printed for the enzyme, read-out: apparent Km.

Consider `NCCc1c[nH]c2ccc(O)cc12` [5HT], for which the results for the Km in data set [1] and in data set [2] were 325 µM and 50 µM, respectively. As for `NCCc1ccc(O)c(O)c1` [Dopamine], the figures for the Michaelis-Menten constant (Km) in data set [1] and in data set [2] were 1520 µM and 25 µM, respectively. `COc1ccc2[nH]cc(CCN)c2c1` [Methoxy-TN]: the Michaelis-Menten constant (Km) in data set [1] was 200 µM; in data set [2] it was 25 µM. As for `NC[C@H](O)c1ccc(O)c(O)c1` [Norepinephrine], the Michaelis-Menten constant (Km) in data set [2] was 28.6 µM. As to `NC[C@H](O)c1ccc(O)cc1` [Octopamine], the values for the Km in data set [1] and in data set [2] were 385 µM and 20 µM, respectively. Consider `NCCc1ccc(O)cc1` [Tyramine], for which the Km in data set [1] was 15.7 µM; in data set [2] it was 28.6 µM.

As to `CC(=O)SCCNC(=O)CCNC(=O)[C@H](O)C(C)(C)COP(=O)(O)OP(=O)(O)OC[C@H]1O[C@@H](n2cnc3c(N)ncnc32)[C@H](O)[C@@H]1OP(=O)(O)O` [acetyl CoA], the Km in data set [3] is 1.42 µM. Take `NCCc1c[nH]c2ccccc12` [tryptamine]: the Km in data set [1] was 1330 µM; in data set [2], 25 µM; in data set [3] (substrate inhibition above 0.03 mM with 0.11 mM acetyl CoA), 3.31 µM.

The Km is the concentration of substrate that gives half-maximal velocity.
